Data: ChEMBL document CHEMBL1143906, “TIE-2/VEGF-R2 SAR and in vitro activity of C3-acyl dihydroindazolo[5,4-a]pyrrolo[3,4-c]carbazole analogs” (Bioorg Med Chem Lett, 2008)

What was measured:
[1] = molecular target: Vascular endothelial growth factor receptor 2 (Homo sapiens, UniProt P35968); assay: Inhibition of VEGFR2
Angiopoietin-1 receptor [2] = molecular target: T1, Angiopoietin-1 receptor (Homo sapiens, UniProt Q02763); assay: Inhibition of TIE2
HUVEC [3] = assay: Inhibition of angiopoietin 1-induced chemotaxis of HUVEC cells; format: functional, cell-based; conditions: Homo sapiens
[4] = Cmax in rat at 5 mg/kg, po; format: ADME, organism-based; parameters: dose 5 mg/kg, route oral; conditions: in vivo
[5] = molecular target: Vascular endothelial growth factor receptor 2 (Mus musculus, UniProt P35918); assay: Inhibition of mouse VEGFR2 autophosphorylation in NIH3T3 cell
[6] = Aqueous solubility at pH 2.0; format: physicochemical; conditions: aqueous medium
Aorta [7] = assay: Toxicity in rat aortic ring; format: tissue-based
HUVEC [8] = assay: Cytotoxicity against human HUVEC cells; format: cell-based
[9] = AUC (0 to infinity) in rat at 1 mg/kg, iv; format: ADME, organism-based; parameters: time infinity, dose 1 mg/kg, route intravenous; conditions: plasma
[10] = Volume of distribution in rat at 1 mg/kg, iv; format: ADME, organism-based; parameters: dose 1 mg/kg, route intravenous; conditions: in vivo
[11] = Clearance in rat at 1 mg/kg, iv; format: ADME, organism-based; parameters: dose 1 mg/kg, route intravenous; conditions: in vivo
[12] = Bioavailability in rat at 5 mg/kg, po; format: ADME, organism-based; conditions: in vivo
[13] = Half life in rat at 1 mg/kg, iv; format: ADME, organism-based; parameters: dose 1 mg/kg, route intravenous; conditions: in vivo
[14] = AUC (0 to infinity) in rat at 5 mg/kg, po; format: ADME, organism-based; parameters: time infinity, dose 5 mg/kg, route oral; conditions: plasma
[15] = AUC (0 to t) in rat at 5 mg/kg, po; format: ADME, organism-based; parameters: dose 5 mg/kg, route oral; conditions: plasma
[16] = Aqueous solubility at pH 7.4; format: physicochemical; conditions: aqueous medium
Aorta [17] = assay: Ex vivo antiangiogenic activity in rat aortic ring explant assessed as inhibition of microvessel growth after 8 days; format: functional, tissue-based; conditions: 192 h
[18] = Tmax in rat at 5 mg/kg, po; format: ADME, organism-based; parameters: dose 5 mg/kg, route oral; conditions: in vivo
[19] = AUC (0 to t) in rat at 1 mg/kg, iv; format: ADME, organism-based; parameters: dose 1 mg/kg, route intravenous; conditions: plasma
Angiopoietin-1 receptor [20] = molecular target: T1, Angiopoietin-1 receptor; assay: Inhibition of TIE2 at 1000 nM
[21] = AUC in rat; format: ADME, organism-based; conditions: plasma
Angiopoietin-1 receptor [22] = molecular target: T1, Angiopoietin-1 receptor; assay: Inhibition of TIE2 at 300 nM

Sequence of Vascular endothelial growth factor receptor 2 (Homo sapiens, UniProt P35968) (P35968 whole entry): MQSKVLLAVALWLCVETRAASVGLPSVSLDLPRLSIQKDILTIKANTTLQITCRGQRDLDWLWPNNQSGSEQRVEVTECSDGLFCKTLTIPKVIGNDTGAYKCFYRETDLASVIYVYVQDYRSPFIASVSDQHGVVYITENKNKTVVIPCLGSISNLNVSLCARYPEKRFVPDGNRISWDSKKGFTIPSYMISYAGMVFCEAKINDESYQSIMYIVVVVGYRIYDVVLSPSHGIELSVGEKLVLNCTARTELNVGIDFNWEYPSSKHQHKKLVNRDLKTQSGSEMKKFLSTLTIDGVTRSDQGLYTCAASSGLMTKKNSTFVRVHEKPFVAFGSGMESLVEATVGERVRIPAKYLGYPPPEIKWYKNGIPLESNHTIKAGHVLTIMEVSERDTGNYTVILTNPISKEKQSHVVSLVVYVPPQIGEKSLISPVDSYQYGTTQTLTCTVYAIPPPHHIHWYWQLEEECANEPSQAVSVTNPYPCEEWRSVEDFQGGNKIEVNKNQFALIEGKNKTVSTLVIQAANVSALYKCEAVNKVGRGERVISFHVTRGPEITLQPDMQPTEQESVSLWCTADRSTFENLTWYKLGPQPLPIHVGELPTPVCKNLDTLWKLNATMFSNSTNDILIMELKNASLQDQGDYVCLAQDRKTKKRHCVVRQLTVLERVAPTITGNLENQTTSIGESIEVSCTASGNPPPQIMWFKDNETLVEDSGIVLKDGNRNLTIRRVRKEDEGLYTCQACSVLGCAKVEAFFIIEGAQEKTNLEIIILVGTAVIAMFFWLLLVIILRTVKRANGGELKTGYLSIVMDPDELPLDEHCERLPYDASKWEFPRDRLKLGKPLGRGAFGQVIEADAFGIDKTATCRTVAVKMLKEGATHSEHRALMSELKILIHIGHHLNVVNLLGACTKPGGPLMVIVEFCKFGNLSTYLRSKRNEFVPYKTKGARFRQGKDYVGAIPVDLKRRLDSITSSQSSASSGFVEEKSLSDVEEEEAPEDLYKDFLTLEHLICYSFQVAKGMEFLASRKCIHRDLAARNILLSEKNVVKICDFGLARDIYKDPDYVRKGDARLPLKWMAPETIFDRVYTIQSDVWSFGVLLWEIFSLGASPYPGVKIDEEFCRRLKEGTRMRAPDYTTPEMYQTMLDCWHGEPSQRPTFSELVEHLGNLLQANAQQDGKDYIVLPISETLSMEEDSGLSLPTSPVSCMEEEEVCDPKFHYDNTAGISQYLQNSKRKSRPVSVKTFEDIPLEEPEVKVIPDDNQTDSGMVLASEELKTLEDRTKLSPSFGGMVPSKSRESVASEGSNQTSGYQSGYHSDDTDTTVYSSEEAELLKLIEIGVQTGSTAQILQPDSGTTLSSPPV
T1 sequence (Q02763 whole entry): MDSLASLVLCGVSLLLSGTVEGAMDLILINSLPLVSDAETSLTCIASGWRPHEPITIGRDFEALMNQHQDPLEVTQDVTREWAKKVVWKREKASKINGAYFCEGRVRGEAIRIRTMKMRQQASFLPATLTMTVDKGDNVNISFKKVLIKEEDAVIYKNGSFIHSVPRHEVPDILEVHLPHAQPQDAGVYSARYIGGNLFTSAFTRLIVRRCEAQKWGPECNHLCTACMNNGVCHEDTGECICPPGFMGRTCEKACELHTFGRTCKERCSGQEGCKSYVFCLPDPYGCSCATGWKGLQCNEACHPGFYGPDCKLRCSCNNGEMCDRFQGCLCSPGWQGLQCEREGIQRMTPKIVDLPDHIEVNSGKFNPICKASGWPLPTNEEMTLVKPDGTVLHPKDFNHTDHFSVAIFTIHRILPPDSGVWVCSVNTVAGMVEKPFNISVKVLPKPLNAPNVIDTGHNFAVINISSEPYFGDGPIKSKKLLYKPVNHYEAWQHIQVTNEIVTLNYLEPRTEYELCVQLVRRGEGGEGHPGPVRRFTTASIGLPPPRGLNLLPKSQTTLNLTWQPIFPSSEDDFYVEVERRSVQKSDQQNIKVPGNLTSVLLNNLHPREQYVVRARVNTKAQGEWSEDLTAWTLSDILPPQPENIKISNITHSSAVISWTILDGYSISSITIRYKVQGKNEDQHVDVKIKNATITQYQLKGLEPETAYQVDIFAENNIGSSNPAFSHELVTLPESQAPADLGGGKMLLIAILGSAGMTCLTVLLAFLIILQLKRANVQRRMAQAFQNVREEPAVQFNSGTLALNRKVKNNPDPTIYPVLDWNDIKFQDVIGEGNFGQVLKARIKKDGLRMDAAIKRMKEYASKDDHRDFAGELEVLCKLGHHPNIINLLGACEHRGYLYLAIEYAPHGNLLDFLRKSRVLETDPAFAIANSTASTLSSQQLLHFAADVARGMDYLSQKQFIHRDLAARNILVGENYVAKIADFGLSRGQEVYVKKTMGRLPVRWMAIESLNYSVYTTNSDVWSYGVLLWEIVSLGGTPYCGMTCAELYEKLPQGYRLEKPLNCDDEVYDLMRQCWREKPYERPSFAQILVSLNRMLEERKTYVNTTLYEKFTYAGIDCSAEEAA
Sequence of Vascular endothelial growth factor receptor 2 (Mus musculus, UniProt P35918) (P35918 whole entry): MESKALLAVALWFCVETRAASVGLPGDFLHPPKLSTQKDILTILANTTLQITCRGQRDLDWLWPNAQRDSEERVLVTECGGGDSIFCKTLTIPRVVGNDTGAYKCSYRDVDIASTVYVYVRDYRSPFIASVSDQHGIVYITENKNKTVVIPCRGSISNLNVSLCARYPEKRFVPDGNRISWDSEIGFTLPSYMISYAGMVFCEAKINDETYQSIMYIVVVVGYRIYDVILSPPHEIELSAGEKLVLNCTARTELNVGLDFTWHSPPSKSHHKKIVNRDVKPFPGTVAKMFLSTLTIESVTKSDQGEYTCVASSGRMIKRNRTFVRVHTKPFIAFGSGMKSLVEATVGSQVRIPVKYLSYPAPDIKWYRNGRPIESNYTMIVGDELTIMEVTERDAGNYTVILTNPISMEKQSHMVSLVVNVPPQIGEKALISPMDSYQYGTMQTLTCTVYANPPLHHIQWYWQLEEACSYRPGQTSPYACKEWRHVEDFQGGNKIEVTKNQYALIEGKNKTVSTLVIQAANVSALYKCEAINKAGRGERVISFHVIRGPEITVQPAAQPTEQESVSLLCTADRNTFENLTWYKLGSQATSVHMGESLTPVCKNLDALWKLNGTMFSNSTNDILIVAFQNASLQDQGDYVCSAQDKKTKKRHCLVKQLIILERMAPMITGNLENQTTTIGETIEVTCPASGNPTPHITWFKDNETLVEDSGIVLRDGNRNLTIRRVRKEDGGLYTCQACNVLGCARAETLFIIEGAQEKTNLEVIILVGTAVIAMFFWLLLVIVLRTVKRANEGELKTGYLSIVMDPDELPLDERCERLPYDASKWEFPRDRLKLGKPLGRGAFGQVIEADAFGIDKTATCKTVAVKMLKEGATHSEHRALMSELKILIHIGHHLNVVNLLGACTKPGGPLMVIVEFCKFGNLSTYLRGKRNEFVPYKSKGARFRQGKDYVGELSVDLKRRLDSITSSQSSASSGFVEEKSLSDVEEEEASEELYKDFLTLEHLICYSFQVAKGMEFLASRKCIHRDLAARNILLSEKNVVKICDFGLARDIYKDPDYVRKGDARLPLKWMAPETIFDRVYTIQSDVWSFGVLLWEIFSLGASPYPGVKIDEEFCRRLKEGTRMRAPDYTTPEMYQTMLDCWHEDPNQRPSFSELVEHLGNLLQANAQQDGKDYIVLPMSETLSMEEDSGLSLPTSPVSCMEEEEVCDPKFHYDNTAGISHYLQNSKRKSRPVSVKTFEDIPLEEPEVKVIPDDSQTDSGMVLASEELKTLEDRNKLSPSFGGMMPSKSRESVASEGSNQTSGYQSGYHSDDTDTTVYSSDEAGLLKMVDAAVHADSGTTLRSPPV

SMILES | IC50 [1] [nM] | IC50 (Angiopoietin-1 receptor [2]) [nM] | also measured
Cn1cc2c(n1)CCc1c-2c2c(c3c1[nH]c1ccccc13)CNC2=O | 16 | 1360 | –
CCCn1c2ccccc2c2c3c(c4c(c21)CCc1nn(C)cc1-4)C(=O)NC3 | 16 | 136 | –
CC(C)Cn1c2ccc(C(=O)c3sccc3Cl)cc2c2c3c(c4c(c21)CCc1nn(C)cc1-4)C(=O)NC3 | 7 | 13 | Activity (HUVEC [3]): Dose-dependent effect; Cmax [4]: 842 ng/mL; IC50 [5]: 10 nM; solubility [6]: < 1 µg/mL; Activity (Aorta [7]): Non-toxic; Activity (HUVEC [8]): Non-toxic; AUC(0-inf) [9]: 1490 ng·h/mL; Vd [10]: 1.4 L/kg; clearance [11]: 12 mL/min/kg; bioavailability [12]: 69%; half-life [13]: 1.35 h; AUC(0-inf) [14]: 5140 ng·h/mL; AUC(0-t) [15]: 3330 ng·h/mL; solubility [16]: < 1 µg/mL; EC50 (Aorta [17]): 20 nM; Tmax [18]: 3.33 h; AUC(0-t) [19]: 1440 ng·h/mL
CC(=O)c1ccc2c(c1)c1c3c(c4c(c1n2CC(C)C)CCc1nn(C)cc1-4)C(=O)NC3 | 21 | 83 | –
CC(=O)c1ccc2[nH]c3c4c(c5c(c3c2c1)CNC5=O)-c1cn(C)nc1CC4 | 35 | > 1000 | inhibition (Angiopoietin-1 receptor [20]): 28%
CC(C)Cn1c2ccc(C(=O)c3ccco3)cc2c2c3c(c4c(c21)CCc1nn(C)cc1-4)C(=O)NC3 | 4 | 72 | –
CC(C)Cn1c2ccccc2c2c3c(c4c(c21)CCc1nn(C)cc1-4)C(=O)NC3 | 17 | 372 | –
CC(C)Cn1c2ccc(C(=O)c3sccc3Br)cc2c2c3c(c4c(c21)CCc1nn(C)cc1-4)C(=O)NC3 | 25 | 15 | IC50 [5]: < 10 nM; clearance [11]: 138 mL/min/kg; AUC [21]: 123 ng·h/mL
CC(C)Cn1c2ccc(C(=O)c3ccoc3)cc2c2c3c(c4c(c21)CCc1nn(C)cc1-4)C(=O)NC3 | 8 | 58 | –
CCn1c2ccc(C(C)=O)cc2c2c3c(c4c(c21)CCc1nn(C)cc1-4)C(=O)NC3 | 13 | 1000 | inhibition (Angiopoietin-1 receptor [20]): 50%
Cc1csc(C(=O)c2ccc3c(c2)c2c4c(c5c(c2n3CC(C)C)CCc2nn(C)cc2-5)C(=O)NC4)c1 | 11 | 43 | IC50 [5]: > 50 nM
CCCn1c2ccc(C(=O)c3cccs3)cc2c2c3c(c4c(c21)CCc1nn(C)cc1-4)C(=O)NC3 | 5 | 26 | –
CCn1c2ccccc2c2c3c(c4c(c21)CCc1nn(C)cc1-4)C(=O)NC3 | 15 | 1100 | –
CC(C)Cn1c2ccc(C(=O)c3cccs3)cc2c2c3c(c4c(c21)CCc1nn(C)cc1-4)C(=O)NC3 | 6 | 20 | Activity (HUVEC [3]): Dose-dependent effect; Cmax [4]: 638 ng/mL; IC50 [5]: 10 nM; solubility [6]: < 1 µg/mL; Activity (Aorta [7]): Non-toxic; Activity (HUVEC [8]): Non-toxic; AUC(0-inf) [9]: 6650 ng·h/mL; Vd [10]: 0.52 L/kg; clearance [11]: 2.36 mL/min/kg; bioavailability [12]: 12%; half-life [13]: 2.32 h; AUC(0-inf) [14]: 4130 ng·h/mL; AUC(0-t) [15]: 2820 ng·h/mL; solubility [16]: < 1 µg/mL; EC50 (Aorta [17]): 20 nM; Tmax [18]: 4 h; AUC(0-t) [19]: 5680 ng·h/mL
CC(C)n1c2ccc(C(=O)c3cccs3)cc2c2c3c(c4c(c21)CCc1nn(C)cc1-4)C(=O)NC3 | 15 | 24 | –
CC(C)OCc1ccc2c(c1)c1c3c(c4c(c1n2CCCOC(=O)CN(C)C)Cc1ccccc1-4)C(=O)NC3 [CEP-7055] | 16 | 1360 | –
CC(=O)c1ccc2c(c1)c1c3c(c4c(c1n2C(C)C)CCc1nn(C)cc1-4)C(=O)NC3 | 75 | 726 | –
CC(C)Cn1c2ccc(C(=O)c3ccsc3)cc2c2c3c(c4c(c21)CCc1nn(C)cc1-4)C(=O)NC3 | 13 | 63 | –
Cc1ccsc1C(=O)c1ccc2c(c1)c1c3c(c4c(c1n2CC(C)C)CCc1nn(C)cc1-4)C(=O)NC3 | 10 | 5 | IC50 [5]: < 10 nM; clearance [11]: 72 mL/min/kg; AUC [21]: 261 ng·h/mL
CC(=O)c1ccc2c(c1)c1c3c(c4c(c1n2C)CCc1nn(C)cc1-4)C(=O)NC3 | 10 | > 10000 | –
Cn1cc2c(n1)CCc1c-2c2c(c3c1[nH]c1ccc(C(=O)c4cccs4)cc13)CNC2=O | 2 | 136 | –
CCCCn1c2ccc(C(C)=O)cc2c2c3c(c4c(c21)CCc1nn(C)cc1-4)C(=O)NC3 | 26 | 300 | inhibition (Angiopoietin-1 receptor [22]): 50%
CCn1c2ccc(C(=O)c3cccs3)cc2c2c3c(c4c(c21)CCc1nn(C)cc1-4)C(=O)NC3 | 1 | 43 | –
CCCn1c2ccc(C(C)=O)cc2c2c3c(c4c(c21)CCc1nn(C)cc1-4)C(=O)NC3 | 3 | 272 | –
